15 molecules from patent US20250311727A1, “SUBSTITUTED 2-AMINOAZINES AND SALTS THEREOF, AND USE THEREOF AS HERBICIDAL ACTIVE SUBSTANCES” (BAYER AKTIENGESELLSCHAFT, priority 2022, published 2025) can be followed below.

Assay type in all cases: in vivo
For test [1], the system named is Amaranthus retroflexus. Nature of the test: Post-emergence herbicidal efficacy at 320 g/ha, AMARE. The note with it: rated visually after about 3 weeks vs untreated controls, 100% = plants have died. An excerpt: (§1) Unwanted plants/weeds: • ABUTH: Abutilon theophrasti • ALOMY: Alopecurus myosuroides • AMARE: Amaranthus retroflexus • DIGSA: Digitaria sanguinalis • ECHCG: Echinochloa crus-galli • KCHSC: Kochia scoparia • LOLRI: Lolium rigidum • MATIN: Matricaria inodora • POAAN: Poa annua • POLCO: Polygonum convolvulus • SETVI: Setaria viridis • STEME: Stellaria media • VERPE: Veronica persica • VIOTR: Viola tricolor A. Post-Emergence Herbicidal Efficacy at 320 g/ha
(§2) Seeds of mono- and dicotyledonous weed plants were placed in plastic pots in sandy loam soil (doubly sown with in each case one species of mono- or dicotyledonous weed plants per pot), covered with soil and cultivated in a greenhouse under controlled growth conditions. 2 to 3 weeks after sowing, the test plants were treated at the one-leaf stage. The compounds of the invention, formulated in the form of wettable powders (WP) or as emulsion concentrates (EC), were applied to the green parts of the plants as aqueous suspension or emulsion with addition of 0.5% additive at a water application rate equivalent to 600 litres per hectare. After the test plants had been kept in the greenhouse under optimum growth conditions for about 3 weeks, the activity of the preparations was rated visually in comparison to untreated controls.
(§3) For example, 100% activity=the plants have died, 0% activity=like control plants.
(§4) Tables A1 to A10 below show the effects of selected compounds of the general formula (I) according to Table 1 on various harmful plants and at an application rate corresponding to 320 g/ha, which were obtained by the trial procedure specified above.

The subject of test [2] is Setaria viridis. The experiment in a line: Pre-emergence herbicide efficacy at 320 g/ha, SETVI. The note with it: scored visually after about 3 weeks vs untreated controls, 100% = plants have died.
Source text: as §1
(§5) Seeds of mono- and dicotyledonous weed plants were placed in plastic pots in sandy loam soil (doubly sown with one species each of mono- or dicotyledonous weed plants per pot) and covered with soil. The compounds of the invention, formulated in the form of wettable powders (WP) or as emulsion concentrates (EC), were then applied to the surface of the covering soil as aqueous suspension or emulsion with addition of 0.5% additive at a water application rate of 600 litres per hectare (converted). After the treatment, the pots were placed in a greenhouse and kept under good growth conditions for the test plants. After about 3 weeks, the efficacy of the preparations was scored visually in comparison with untreated controls as percentages.
as §3
(§6) Tables C1 to C12 below show the effects of selected compounds of the general formula (I) according to Table 1 on various harmful plants and at an application rate corresponding to 320 g/ha, which were obtained by the trial procedure specified above.

The test system of test [3] is Abutilon theophrasti. Nature of the test: Post-emergence herbicidal efficacy at 320 g/ha, ABUTH. The note with it: rated visually after about 3 weeks vs untreated controls, 100% = plants have died.
Source text: as §1, §2, §3, §4

Test [4] deals with Veronica persica. Nature of the test: Post-emergence herbicidal efficacy at 320 g/ha, VERPE. The note with it: rated visually after about 3 weeks vs untreated controls, 100% = plants have died.
Source text: as §1, §2, §3, §4

Test [5] concerns Amaranthus retroflexus. Nature of the test: Pre-emergence herbicide efficacy at 320 g/ha, AMARE. Conditions: scored visually after about 3 weeks vs untreated controls, 100% = plants have died.
Source text: as §1, §5, §3, §6

Test [6] relates to Kochia scoparia. The experiment in a line: Pre-emergence herbicide efficacy at 320 g/ha, KCHSC. Conditions: scored visually after about 3 weeks vs untreated controls, 100% = plants have died.
Source text: as §1, §5, §3, §6

Test [7] relates to Kochia scoparia. Nature of the test: Post-emergence herbicidal efficacy at 320 g/ha, KCHSC. The note with it: rated visually after about 3 weeks vs untreated controls, 100% = plants have died.
Source text: as §1, §2, §3, §4

In test [8] the test system is Digitaria sanguinalis. Nature of the test: Pre-emergence herbicide efficacy at 320 g/ha, DIGSA. Conditions: scored visually after about 3 weeks vs untreated controls, 100% = plants have died.
Source text: as §1, §5, §3, §6

In test [9] the test system is Stellaria media. Nature of the test: Post-emergence herbicidal efficacy at 320 g/ha, STEME. The note with it: rated visually after about 3 weeks vs untreated controls, 100% = plants have died.
Source text: as §1, §2, §3, §4

The subject of test [10] is Stellaria media. Nature of the test: Pre-emergence herbicide efficacy at 320 g/ha, STEME. The note with it: scored visually after about 3 weeks vs untreated controls, 100% = plants have died.
Source text: as §1, §5, §3, §6

In test [11] the test system is Veronica persica. Nature of the test: Pre-emergence herbicide efficacy at 320 g/ha, VERPE. Conditions: scored visually after about 3 weeks vs untreated controls, 100% = plants have died.
Source text: as §1, §5, §3, §6

For the molecule `FC(F)(F)CCCc1ccccc1Nc1ncc(Cl)cn1` [Example 1-1], in [1], the “Post-emergence efficacy at 320 g/ha against AMARE in %” value is on record as 90%. In addition, the “Pre-emergence efficacy at 320 g/ha against SETVI in %” value in test [2] was 90%. Further, the “Post-emergence efficacy at 320 g/ha against ABUTH in %” value in [3] is recorded as 90%. The “Post-emergence efficacy at 320 g/ha against VERPE in %” value in test [4] came out at 90%. Further, the “Pre-emergence efficacy at 320 g/ha against AMARE in %” value in [5] is given as 90%.
In the case of `N#Cc1cccc(Nc2ncc(Cl)cn2)c1-n1cccn1` [Example 1-64], the “Pre-emergence efficacy at 320 g/ha against KCHSC in %” value in [6] came out at 90%. Moreover, in test [1], the “Post-emergence efficacy at 320 g/ha against AMARE in %” value is listed as 100%. Besides, the “Post-emergence efficacy at 320 g/ha against KCHSC in %” value in test [7] is listed as 100%. The “Pre-emergence efficacy at 320 g/ha against SETVI in %” value in [2] came to 100%. Also, the “Post-emergence efficacy at 320 g/ha against VERPE in %” value in test [4] was 90%. In addition, in test [8], the “Pre-emergence efficacy at 320 g/ha against DIGSA in %” value came out at 90%. Besides, in test [5], the “Pre-emergence efficacy at 320 g/ha against AMARE in %” value amounted to 100%. For the same molecule, in [9], the “Post-emergence efficacy at 320 g/ha against STEME in %” value was determined as 90%.
Regarding `N#Cc1cccc(Nc2ccc(Cl)cn2)c1-n1cc(C(F)(F)F)cn1` [Example 1-59], in [1], the “Post-emergence efficacy at 320 g/ha against AMARE in %” value was 90%. For the same molecule, the “Post-emergence efficacy at 320 g/ha against KCHSC in %” value in test [7] turned out to be 90%. In test [4], the “Post-emergence efficacy at 320 g/ha against VERPE in %” value amounted to 100%. For the same molecule, in [5], the “Pre-emergence efficacy at 320 g/ha against AMARE in %” value was 90%.
As for `Cc1cc(C)c(-c2cc(C(F)F)no2)c(Nc2ncc(Cl)cn2)n1` [Example 2-4], the “Pre-emergence efficacy at 320 g/ha against STEME in %” value in test [10] worked out at 90%. Also, in [7], the “Post-emergence efficacy at 320 g/ha against KCHSC in %” value worked out at 90%. Besides, the “Post-emergence efficacy at 320 g/ha against STEME in %” value in test [9] turned out to be 100%.
For `N#Cc1cc(Cl)cnc1Nc1ccccc1CCCCC(F)(F)F` [Example 1-76], the “Post-emergence efficacy at 320 g/ha against AMARE in %” value in test [1] stood at 90%. Besides, the “Post-emergence efficacy at 320 g/ha against VERPE in %” value in test [4] was 90%.
For `Fc1ccc(-c2ccccc2Nc2ncc(Cl)cn2)cc1F` [Example 1-28], the “Post-emergence efficacy at 320 g/ha against AMARE in %” value in [1] worked out at 100%. Also, in [4], the “Post-emergence efficacy at 320 g/ha against VERPE in %” value came out at 100%.
Consider `Clc1ccc(-c2ccccc2Nc2ncc(Cl)cn2)cc1` [Example 1-25], for which the “Post-emergence efficacy at 320 g/ha against VERPE in %” value in test [4] worked out at 90%. For the same molecule, in test [9], the “Post-emergence efficacy at 320 g/ha against STEME in %” value was 100%.
`O=S(=O)(CCC(F)(F)F)Oc1c(F)cccc1Nc1ncc(Cl)cn1` [Example 1-16]: the “Post-emergence efficacy at 320 g/ha against VERPE in %” value in test [4] is recorded as 90%. The “Pre-emergence efficacy at 320 g/ha against AMARE in %” value in test [5] turned out to be 90%.
Turning to `O=S(=O)(CCCC(F)(F)F)Oc1c(F)cccc1Nc1ncc(Cl)cn1` [Example 1-14], the “Post-emergence efficacy at 320 g/ha against AMARE in %” value in test [1] is 90%. In addition, the “Post-emergence efficacy at 320 g/ha against VERPE in %” value in test [4] amounted to 90%. The “Pre-emergence efficacy at 320 g/ha against AMARE in %” value in [5] is recorded as 90%.
On to `FC(F)(F)c1cnn(-c2ccccc2Nc2ncc(Cl)cn2)c1` [Example 1-78], for which the “Pre-emergence efficacy at 320 g/ha against SETVI in %” value in test [2] worked out at 90%. Also, the “Post-emergence efficacy at 320 g/ha against VERPE in %” value in test [4] came to 90%. Moreover, the “Pre-emergence efficacy at 320 g/ha against AMARE in %” value in test [5] is 100%. Further, in [9], the “Post-emergence efficacy at 320 g/ha against STEME in %” value is on record as 90%.
In the case of `Fc1cnc(Nc2ccccc2CCCC(F)(F)F)nc1` [Example 1-3], the “Post-emergence efficacy at 320 g/ha against AMARE in %” value in test [1] is 90%. Moreover, in test [4], the “Post-emergence efficacy at 320 g/ha against VERPE in %” value was 90%.
With `N#Cc1cccc(Nc2ncc(Cl)cn2)c1-n1cc(Br)cn1` [Example 1-73], the “Post-emergence efficacy at 320 g/ha against AMARE in %” value in test [1] is reported as 100%. In test [7], the “Post-emergence efficacy at 320 g/ha against KCHSC in %” value is 90%. For the same molecule, the “Post-emergence efficacy at 320 g/ha against VERPE in %” value in test [4] is on record as 90%.
Take `N#Cc1cccc(Nc2ncc(Cl)cn2)c1-n1cc(Cl)cn1` [Example 1-72]: the “Pre-emergence efficacy at 320 g/ha against KCHSC in %” value in test [6] was found to be 90%. The “Post-emergence efficacy at 320 g/ha against AMARE in %” value in [1] turned out to be 100%. In addition, in test [7], the “Post-emergence efficacy at 320 g/ha against KCHSC in %” value was determined as 90%. For the same molecule, the “Pre-emergence efficacy at 320 g/ha against SETVI in %” value in test [2] stood at 90%. Further, the “Post-emergence efficacy at 320 g/ha against VERPE in %” value in [4] came to 90%. Moreover, in [8], the “Pre-emergence efficacy at 320 g/ha against DIGSA in %” value was found to be 90%. Moreover, in test [11], the “Pre-emergence efficacy at 320 g/ha against VERPE in %” value was found to be 90%. The “Pre-emergence efficacy at 320 g/ha against AMARE in %” value in test [5] is 100%.
With `Fc1cc(Cl)cnc1Nc1cccc(F)c1-c1cc(C(F)F)no1` [Example 1-57], in test [7], the “Post-emergence efficacy at 320 g/ha against KCHSC in %” value came out at 90%.
Take `N#Cc1cc(Cl)cnc1Nc1cccc(C#N)c1-n1cc(C(F)(F)F)cn1` [Example 1-55]: in test [1], the “Post-emergence efficacy at 320 g/ha against AMARE in %” value was found to be 100%. The “Post-emergence efficacy at 320 g/ha against KCHSC in %” value in test [7] turned out to be 90%. The “Post-emergence efficacy at 320 g/ha against VERPE in %” value in test [4] was determined as 100%. For the same molecule, the “Pre-emergence efficacy at 320 g/ha against AMARE in %” value in [5] amounted to 100%.
